In US12226390B2, “Cannabinoids compositions with polyunsaturated fatty acid monoglycerides, methods and uses thereof” (SCF PHARMA INC., priority 2019, dated 2025):
Values after ≈ are worked out from the molar mass of the structure shown.

Legend:
[1] = CBD solubility in carrier oils; format: physicochemical; conditions: for solubility: oil or lipid
[2] = Comparative human absorption cross-over study of CBD in compound of formula (IV) versus MCT oil; format: in vivo
Method: 54 mg of cannabidiol (CBD) was dissolved in 2.5 g of compound of formula (IV) to give a clear solution. 1.16 g of the mixture (25 mg CBD) was encapsulated in two (2) hard gel capsules (size 00) for absorption study. A pilot absorption study was conducted in one volunteer. The two (2) hard gel capsules were swallowed with a glass of water by the volunteer fasted for 10 h. 200 ul of blood was collected by a lancet in a heparinised microtube at T=0, 1, 2, 3, 4, 5, 6, 7 and 8 h. The plasma was analyzed by HPLC/MS/MS to quantify the CBD. A comparative study was conducted with the same amount of CBD but with MCT oil (medium-chain triglycerides oil) instead of compound of formula (IV).

[3] = 400 mg CBD in corn oil, orally administered; cited from earlier work
[4] = Human absorption study of composition 1 (cannabinoid extract containing CBDA in compound of formula IV and EPA fish oil); format: in vivo
Method: Cannabis dried flowers (7 g) was extracted with ethanol (100 ml) for 72 h at room temperature. The flowers was filtered and the ethanol was removed under vacuum without heating to give the cannabinoid crude extract (1.9 g) containing 85% CBDA and 4% THCA. The crude extract (315 mg) was dissolved in a mixture of compound of formula (IV) and EPA concentrated ethyl ester fish oil (3.5 g) to give composition 1.
2.47 g of composition 1 was encapsulated in four (4) hard gel capsules (size 00) for absorption study. A pilot absorption study was conducted in one volunteer. The four (4) hard gel capsules were swallowed with a glass of water by the volunteer fasted for 10 h. 200 ul of blood was collected by a lancet in a heparinised microtube at T=0, 0.5, 1, 1.5, 2, 2.5, 3, 3.5, 4, 4.5, and 6.5 h. The plasma was analyzed by HPLC/MS/MS to quantify the CBDA.

COX-2 = target: T1, COX-2 (Homo sapiens, UniProt P35354); conditions: native acid form; cited from earlier work
T1 sequence (P35354 18-604): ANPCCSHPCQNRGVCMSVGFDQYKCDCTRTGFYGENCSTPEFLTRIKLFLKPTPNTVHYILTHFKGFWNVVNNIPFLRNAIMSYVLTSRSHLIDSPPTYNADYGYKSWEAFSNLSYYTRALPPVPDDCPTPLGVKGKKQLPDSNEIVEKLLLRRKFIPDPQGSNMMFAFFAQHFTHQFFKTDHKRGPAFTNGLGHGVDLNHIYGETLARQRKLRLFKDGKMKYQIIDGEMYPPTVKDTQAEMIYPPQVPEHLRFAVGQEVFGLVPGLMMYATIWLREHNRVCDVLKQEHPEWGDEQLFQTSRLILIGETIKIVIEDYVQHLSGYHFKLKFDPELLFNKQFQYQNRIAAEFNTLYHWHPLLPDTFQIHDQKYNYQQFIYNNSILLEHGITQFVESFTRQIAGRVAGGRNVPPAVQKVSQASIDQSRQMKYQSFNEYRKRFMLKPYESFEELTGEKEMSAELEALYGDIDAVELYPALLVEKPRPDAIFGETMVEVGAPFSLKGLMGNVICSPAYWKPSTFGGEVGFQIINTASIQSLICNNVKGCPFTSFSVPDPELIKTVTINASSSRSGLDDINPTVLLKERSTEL

[5] = stated by Health Canada; cited from earlier work
[6] = native acid form; cited from earlier work

Which increase of solubility ([1]; formulation containing compound of formula IV and EPA fish oil versus corn oil) does the source give for `C=C(C)[C@@H]1CCC(C)=C[C@H]1c1c(O)cc(CCCCC)cc1O` [CBD, Cannabidiol] here?
The increase of solubility was 33%.

What about the solubility ([1]; in a formulation containing compound of formula IV and EPA fish oil) of the same compound?
Its solubility is 400 mg/mL (≈ 1270 mM).

What about the solubility ([1]; in corn oil) of the same compound?
The solubility was ~300 mg/mL (≈ 954 mM).

And the “absorption and bioavailability of CBD, compound of formula (IV) over MCT oil” value ([2]; 25 mg CBD oral in hard gel capsules, one volunteer fasted 10 h, plasma 0-8 h, FIG. 1)?
Its value is “superiority”.

What about the bioavailability ([2]; human, plasma, formulated in compound of formula IV, low dose of 25 mg, oral, read-out: CBD more bioavailable than in MCT oil) of the same compound?
The bioavailability was 200%.

What about the Cmax in plasma [3] of the same compound?
The Cmax in plasma was 181 ng/mL.

For `C=C(C)[C@@H]1CCC(C)=C[C@H]1c1c(O)cc(CCCCC)c(C(=O)O)c1O` [CBDA, Cannabidiolic Acid], which “increase of the Cmax” value ([4]; 170 mg CBDA in compound of formula IV versus 400 mg CBD in corn oil (half of the dose)) is on record?
Its value is 500%.

What about the Cmax ([4]; human, plasma, cannabinoid extract containing 170 mg of CBDA in compound of formula IV, oral, one fasted volunteer) of the same compound?
The Cmax was 1000 ng/mL.

What about the COX-2 inhibition (COX-2) of the same compound?
The COX-2 inhibition was “COX-2 inhibitor”.

With `CCCCCc1cc(O)c2c(c1)OC(C)(C)[C@@H]1CCC(C)=C[C@@H]21` [THC, Tetrahydrocannabinol] as the compound, how does the oral bioavailability [5] read?
Its oral bioavailability is 10%.

With `CCCCCc1cc2c(c(O)c1C(=O)O)[C@@H]1C=C(C)CC[C@H]1C(C)(C)O2` [THCA, Tetrahydrocannabinolic acid] as the compound, how does the psychotropic effect [6] read?
Its psychotropic effect is “no psychotropic effect”.
